The values below come from the NIST ThermoML archive (doi:10.1016/j.fluid.2018.09.024).

± gives the expanded uncertainty stated by the source.

This data set in a line: activity coefficient (dimensionless); of the first substance listed, at infinite dilution; xn = mol fraction of the nth substance listed. Particulars: 101.33 kPa, Liquid, Chromatography, x1 = 0.

With `CCCCCC` [hexane] + CCCCCCCCCCCC[N+](C)(C)CCOc1ccccc1.N#C[N-]C#N, the activity coefficient (328.15 K) came out at 5.12 ± 0.35; the activity coefficient (338.15 K) is 5.22 ± 0.36; the activity coefficient (348.15 K) worked out at 5.3 ± 0.36; the activity coefficient (358.15 K) came out at 5.41 ± 0.37; the activity coefficient (368.15 K) worked out at 5.53 ± 0.38; the activity coefficient (378.15 K) was determined as 5.6 ± 0.38.

Regarding `CC1CCCCC1` [methylcyclohexane] + CCCCCCCCCCCC[N+](C)(C)CCOc1ccccc1.N#C[N-]C#N, the activity coefficient by setting is: (328.15 K) 3.67 ± 0.25; (338.15 K) 3.73 ± 0.25; (348.15 K) 3.78 ± 0.26; (358.15 K) 3.85 ± 0.26; (368.15 K) 3.9 ± 0.27; (378.15 K) 3.95 ± 0.27.

`C=C(C)c1ccccc1` [(1-methylethenyl)benzene] + CCCCCCCCCCCC[N+](C)(C)CCOc1ccccc1.O=S(=O)([N-]S(=O)(=O)C(F)(F)F)C(F)(F)F: the activity coefficient is 0.784 ± 0.051 (318.15 K); 0.831 ± 0.054 (328.15 K); 0.881 ± 0.056 (338.15 K); 0.931 ± 0.059 (348.15 K); 0.985 ± 0.062 (358.15 K); 1.03 ± 0.06 (368.15 K).

Take `CCCO` [propan-1-ol] + CCCCCCCCCCCC[N+](C)(C)CCOc1ccccc1.O=S(=O)([N-]S(=O)(=O)C(F)(F)F)C(F)(F)F: the activity coefficient is, setting by setting: (318.15 K) 1.28 ± 0.08; (328.15 K) 1.24 ± 0.08; (338.15 K) 1.2 ± 0.08; (348.15 K) 1.17 ± 0.07; (358.15 K) 1.14 ± 0.07; (368.15 K) 1.11 ± 0.07.

In the case of `CCc1ccccc1` [ethylbenzene] + CCCCCCCCCCCC[N+](C)(C)CCOc1ccccc1.O=S(=O)([N-]S(=O)(=O)C(F)(F)F)C(F)(F)F, the activity coefficient is 0.9 ± 0.057 (318.15 K); 0.948 ± 0.06 (328.15 K); 0.995 ± 0.062 (338.15 K); 1.04 ± 0.07 (348.15 K); 1.09 ± 0.07 (358.15 K); 1.13 ± 0.07 (368.15 K).

On to `C1CCCCC1` [cyclohexane] + CCCCCCCCCCCC[N+](C)(C)CCOc1ccccc1.N#C[N-]C#N, for which the activity coefficient by setting is: (328.15 K) 3.15 ± 0.21; (338.15 K) 3.16 ± 0.22; (348.15 K) 3.18 ± 0.22; (358.15 K) 3.2 ± 0.22; (368.15 K) 3.22 ± 0.22; (378.15 K) 3.24 ± 0.22.

Take `CCc1ccccc1` [ethylbenzene] + CCCCCCCCCCCC[N+](C)(C)CCOc1ccccc1.N#C[N-]C#N: the activity coefficient is 1.4 ± 0.09 (328.15 K); 1.45 ± 0.1 (338.15 K); 1.5 ± 0.1 (348.15 K); 1.55 ± 0.1 (358.15 K); 1.6 ± 0.11 (368.15 K); 1.64 ± 0.11 (378.15 K).

Turning to `c1ccsc1` [thiophene] + CCCCCCCCCCCC[N+](C)(C)CCOc1ccccc1.O=S(=O)([N-]S(=O)(=O)C(F)(F)F)C(F)(F)F, the activity coefficient runs as follows: (318.15 K) 0.534 ± 0.039; (328.15 K) 0.562 ± 0.04; (338.15 K) 0.591 ± 0.042; (348.15 K) 0.62 ± 0.043; (358.15 K) 0.649 ± 0.044; (368.15 K) 0.68 ± 0.046.

In the case of `c1ccncc1` [pyridine] + CCCCCCCCCCCC[N+](C)(C)CCOc1ccccc1.N#C[N-]C#N, the activity coefficient reads like this: (328.15 K) 0.586 ± 0.042; (338.15 K) 0.604 ± 0.042; (348.15 K) 0.622 ± 0.043; (358.15 K) 0.639 ± 0.044; (368.15 K) 0.656 ± 0.045; (378.15 K) 0.673 ± 0.046.

Consider `CCC[N+](=O)[O-]` [1-nitropropane] + CCCCCCCCCCCC[N+](C)(C)CCOc1ccccc1.O=S(=O)([N-]S(=O)(=O)C(F)(F)F)C(F)(F)F, for which the activity coefficient runs as follows: (318.15 K) 0.722 ± 0.048; (328.15 K) 0.747 ± 0.049; (338.15 K) 0.77 ± 0.05; (348.15 K) 0.793 ± 0.052; (358.15 K) 0.815 ± 0.053; (368.15 K) 0.837 ± 0.054.

As to `C1CCCCCC1` [cycloheptane] + CCCCCCCCCCCC[N+](C)(C)CCOc1ccccc1.N#C[N-]C#N, the activity coefficient reads like this: (328.15 K) 3.26 ± 0.22; (338.15 K) 3.29 ± 0.22; (348.15 K) 3.31 ± 0.23; (358.15 K) 3.34 ± 0.23; (368.15 K) 3.37 ± 0.23; (378.15 K) 3.39 ± 0.23.

For `CC(C)OC(C)C` [diisopropyl ether] + CCCCCCCCCCCC[N+](C)(C)CCOc1ccccc1.O=S(=O)([N-]S(=O)(=O)C(F)(F)F)C(F)(F)F, the activity coefficient (318.15 K) was found to be 1.9 ± 0.13; the activity coefficient (328.15 K) was determined as 1.97 ± 0.13; the activity coefficient (338.15 K) was determined as 2.03 ± 0.14; the activity coefficient (348.15 K) was found to be 2.1 ± 0.14; the activity coefficient (358.15 K) came out at 2.16 ± 0.15; the activity coefficient (368.15 K) is 2.22 ± 0.15.

`Cc1ccc(C)cc1` [1,4-dimethylbenzene] + CCCCCCCCCCCC[N+](C)(C)CCOc1ccccc1.O=S(=O)([N-]S(=O)(=O)C(F)(F)F)C(F)(F)F: the activity coefficient came to 0.861 ± 0.055 (318.15 K); 0.916 ± 0.058 (328.15 K); 0.967 ± 0.061 (338.15 K); 1.02 ± 0.06 (348.15 K); 1.08 ± 0.07 (358.15 K); 1.14 ± 0.07 (368.15 K).

With `CCCC(=O)OC` [methyl butanoate] + CCCCCCCCCCCC[N+](C)(C)CCOc1ccccc1.N#C[N-]C#N, the activity coefficient by setting is: (328.15 K) 1.29 ± 0.08; (338.15 K) 1.34 ± 0.09; (348.15 K) 1.38 ± 0.09; (358.15 K) 1.42 ± 0.09; (368.15 K) 1.46 ± 0.1; (378.15 K) 1.5 ± 0.1.

For `O` [water] + CCCCCCCCCCCC[N+](C)(C)CCOc1ccccc1.O=S(=O)([N-]S(=O)(=O)C(F)(F)F)C(F)(F)F, the activity coefficient is 3.65 ± 0.25 (318.15 K); 3.32 ± 0.23 (328.15 K); 3.04 ± 0.21 (338.15 K); 2.8 ± 0.19 (348.15 K); 2.59 ± 0.18 (358.15 K); 2.4 ± 0.16 (368.15 K).

Regarding `COC(C)(C)C` [2-methoxy-2-methylpropane] + CCCCCCCCCCCC[N+](C)(C)CCOc1ccccc1.N#C[N-]C#N, the activity coefficient was 2.28 ± 0.16 (328.15 K); 2.33 ± 0.16 (338.15 K); 2.38 ± 0.16 (348.15 K); 2.43 ± 0.17 (358.15 K); 2.48 ± 0.17 (368.15 K); 2.53 ± 0.17 (378.15 K).

Regarding `CCCCCCCCC` [nonane] + CCCCCCCCCCCC[N+](C)(C)CCOc1ccccc1.O=S(=O)([N-]S(=O)(=O)C(F)(F)F)C(F)(F)F, the activity coefficient reads like this: (318.15 K) 4.77 ± 0.33; (328.15 K) 4.87 ± 0.33; (338.15 K) 4.96 ± 0.34; (348.15 K) 5.03 ± 0.34; (358.15 K) 5.12 ± 0.35; (368.15 K) 5.18 ± 0.35.

As for `CCC(=O)CC` [pentan-3-one] + CCCCCCCCCCCC[N+](C)(C)CCOc1ccccc1.O=S(=O)([N-]S(=O)(=O)C(F)(F)F)C(F)(F)F, the activity coefficient came to 0.387 ± 0.034 (318.15 K); 0.412 ± 0.034 (328.15 K); 0.437 ± 0.035 (338.15 K); 0.462 ± 0.036 (348.15 K); 0.486 ± 0.037 (358.15 K); 0.511 ± 0.038 (368.15 K).

With `CC(C)c1ccccc1` [isopropylbenzene] + CCCCCCCCCCCC[N+](C)(C)CCOc1ccccc1.O=S(=O)([N-]S(=O)(=O)C(F)(F)F)C(F)(F)F, the activity coefficient reads like this: (318.15 K) 1.14 ± 0.07; (328.15 K) 1.19 ± 0.08; (338.15 K) 1.24 ± 0.08; (348.15 K) 1.29 ± 0.08; (358.15 K) 1.34 ± 0.09; (368.15 K) 1.39 ± 0.09.

Regarding `CC(C)=O` [acetone] + CCCCCCCCCCCC[N+](C)(C)CCOc1ccccc1.O=S(=O)([N-]S(=O)(=O)C(F)(F)F)C(F)(F)F, the activity coefficient came out at 0.331 ± 0.032 (318.15 K); 0.353 ± 0.032 (328.15 K); 0.375 ± 0.033 (338.15 K); 0.398 ± 0.034 (348.15 K); 0.421 ± 0.035 (358.15 K); 0.445 ± 0.036 (368.15 K).

Take `CC(C)CC(C)(C)C` [2,2,4-trimethylpentane] + CCCCCCCCCCCC[N+](C)(C)CCOc1ccccc1.N#C[N-]C#N: the activity coefficient runs as follows: (328.15 K) 7.07 ± 0.48; (338.15 K) 7.15 ± 0.49; (348.15 K) 7.23 ± 0.49; (358.15 K) 7.32 ± 0.5; (368.15 K) 7.39 ± 0.5; (378.15 K) 7.47 ± 0.51.

With `C1CCCCCCC1` [cyclooctane] + CCCCCCCCCCCC[N+](C)(C)CCOc1ccccc1.O=S(=O)([N-]S(=O)(=O)C(F)(F)F)C(F)(F)F, the activity coefficient (318.15 K) worked out at 2.57 ± 0.17; the activity coefficient (328.15 K) was found to be 2.61 ± 0.18; the activity coefficient (338.15 K) stood at 2.65 ± 0.18; the activity coefficient (348.15 K) was determined as 2.68 ± 0.18; the activity coefficient (358.15 K) came out at 2.71 ± 0.18; the activity coefficient (368.15 K) is 2.75 ± 0.19.

On to `C=COC(C)=O` [vinyl acetate] + CCCCCCCCCCCC[N+](C)(C)CCOc1ccccc1.N#C[N-]C#N, for which the activity coefficient by setting is: (328.15 K) 1.24 ± 0.08; (338.15 K) 1.28 ± 0.08; (348.15 K) 1.31 ± 0.09; (358.15 K) 1.35 ± 0.09; (368.15 K) 1.38 ± 0.09; (378.15 K) 1.41 ± 0.09.

As for `C=CCCC` [1-pentene] + CCCCCCCCCCCC[N+](C)(C)CCOc1ccccc1.N#C[N-]C#N, the activity coefficient reads like this: (328.15 K) 3.3 ± 0.22; (338.15 K) 3.36 ± 0.23; (348.15 K) 3.42 ± 0.23; (358.15 K) 3.48 ± 0.24; (368.15 K) 3.54 ± 0.24; (378.15 K) 3.61 ± 0.25.
